Tests used:
[1] = system: intracellular cAMP levels; assay: Cyclic AMP measurements in Calu-3 cells (competitive immunoassay); format: cell-based, human
Procedure: Cyclic AMP measurements. […] Cellular cAMP levels were measured in non-acetylated samples using a competitive immunoassay for cAMP (R&D systems, Minneapolis, Minn.). The regulatory role of vitamin C on Cl ion channel activity was studied in Calu-3 airway cells which express large amounts of native CFTR as their major Cl conductance ([…]., Widdicombe, J. H. & Wine, J. J. (1994) Am. J. Physiol. 266, […]-[…]). […] Details of the single channel recording are illustrated in FIG. 20C. […] At negative potentials no channel openings were resolved indicating Cl-over-gluconate selectivity. Cyclic AMP is the major intracellular messenger for the activation of CFTR. We tested the possibility that L-ascorbic acid increased intracellular cAMP levels [cAMP], by either turning on cAMP production or preventing cAMP degradation. FIG. 20E compares whole cell cAMP levels of Calu-3 cells challenged with either increasing concentrations of L-ascorbic acid or the cAMP agonist forskolin.

[2] = system: nasal potential difference; assay: Nasal potential difference measurement in a human volunteer (Knowles protocol); format: in vivo; settings: L-ascorbic acid 100 μM in luminal perfusate; amiloride, chloride-free solution
Procedure: In vivo, chloride secretion may be assessed using measurements of nasal potential differences in a mammal, such as a human or a mouse. […] The nasal potential difference is measured as the electrical potential measured on the nasal mucosa with respect to a skin electrode placed on a slightly scratched skin part (see Alton et al., Eur. Respir. J. 3:922-926, 1990) or with respect to a subcutaneous needle (see Knowles et al., Hum. Gene Therapy 6:445-455, 1995). Nasal potential difference is evaluated in the presence and absence of test compound, and those compounds that results in a statistically significant increase in nasal potential difference stimulate chloride transport.
The effect of quercetin on nasal potential difference (PD) measurement in a healthy human volunteer was measured as described by Knowles et al., Hum. Gene Therapy 6:445-455, 1995.
Nasal potential difference measurement was performed on a human volunteer according to a protocol by Knowles et al., Hum. Gene Therapy 6:445-455, 1995. Addition of L-ascorbic acid (100 μM) to the luminal perfusate in the nose (in the presence of amiloride (blocks Na currents) and in chloride-free solution) hyperpolarized nasal potential difference (PD) by 6.3 mV (FIG. 17). […] Stimulation was reversed by washing out drugs with NaCl Ringer solution.

ΔF508 CFTR = molecular target: T1, ΔF508 CFTR (Mus musculus, UniProt P26361, DEL508-508); assay: Rectal potential difference (RPD) in mice homozygous for ΔF508 CFTR; format: in vivo
T1 construct: from tissue; host or cells: rectal mucosa of living ΔF508 CF mice (C57Bl6/J), TMAO-treated or water-injected
Description: CF mice and rectal potential difference (RPD) measurements. Gene-targeted mice homozygous for the ΔF508 mutation (C57Bl6/J) received Golytely® (Braintree Laboratories, Inc.), a diarrhetic supplement, in the drinking water to increase their lifespan (Clarke, L. L., Gawenis, L. R., Franklin, C. L. & Harline, M. C. (1996) Lab. Anim. Sci. 46, 612-8). To correct the maturation defect of ΔF508 CFTR we used the chemical chaperone trimethylamine oxide (TMAO) (Brown, C. R., Hong-Brown, L. Q., Biwersi, J., Verkman, A. S. & Welch, W. J. (1996) Cell Stress Chaperones 1, 117-25). CF mice were injected with 4 mg/g TMAO from a 4 M stock solution every 8 hours for 24 hours, which is a regimen to partially correct the ΔF508 defect in CF mice (Fischer, H., Barbry, P., Illek, B., Sartori, C., Fukuda, N. & Matthay, M. A. (2001) Am. J. Physiol. 281, L52-L57). Controls were water-injected. The RPD assay was performed on mice that were anesthetized with 0.1 mg/g body weight ketamine and 0.01 mg/g body weight azepromazine. RPD was sensed with a 1 M NaCl agar bridge inserted ˜1 cm into the rectum vs. a subcutaneous needle filled with 1 M NaCl. Measurements were performed in Cl free solution containing 100 μm amiloride and 5 mM Ba(OH)2 to isolate the Cl-selective RPD.
In this Example, it was determined whether L-ascorbic acid affected the functional activation of ΔF508 CFTR in a CF-affected organism in vivo. Using gene-targeted mice homozygous for the ΔF508 mutation it was shown previously that the osmolyte trimethylamine oxide (TMAO) effectively supported ΔF508 CFTR trafficking in vivo (Fischer, H., Barbry, P., Illek, B., Sartori, C., Fukuda, N. & Matthay, M. A. (2001) Am. J. Physiol. 281, L52-L57). Accordingly, the effect of L-ascorbic acid was tested in homozygous ΔF508 CF mice treated with TMAO by using the RPD assay as a functional end point measure for mutant ΔF508-CFTR function. FIG. 24A illustrates that TMAO-treated CF mice manifested a detectable response to a maximal dose of L-ascorbic acid (1 mM) or its epimer D-isoascorbic acid (300 μM) and RPD hyperpolarized on average by −3.2±0.8 mV (n=4) and −3.6±1.8 mV (n=3), respectively (FIG. 24B).

T1 sequence (P26361 with tags, fused parts or gaps DEL508-508): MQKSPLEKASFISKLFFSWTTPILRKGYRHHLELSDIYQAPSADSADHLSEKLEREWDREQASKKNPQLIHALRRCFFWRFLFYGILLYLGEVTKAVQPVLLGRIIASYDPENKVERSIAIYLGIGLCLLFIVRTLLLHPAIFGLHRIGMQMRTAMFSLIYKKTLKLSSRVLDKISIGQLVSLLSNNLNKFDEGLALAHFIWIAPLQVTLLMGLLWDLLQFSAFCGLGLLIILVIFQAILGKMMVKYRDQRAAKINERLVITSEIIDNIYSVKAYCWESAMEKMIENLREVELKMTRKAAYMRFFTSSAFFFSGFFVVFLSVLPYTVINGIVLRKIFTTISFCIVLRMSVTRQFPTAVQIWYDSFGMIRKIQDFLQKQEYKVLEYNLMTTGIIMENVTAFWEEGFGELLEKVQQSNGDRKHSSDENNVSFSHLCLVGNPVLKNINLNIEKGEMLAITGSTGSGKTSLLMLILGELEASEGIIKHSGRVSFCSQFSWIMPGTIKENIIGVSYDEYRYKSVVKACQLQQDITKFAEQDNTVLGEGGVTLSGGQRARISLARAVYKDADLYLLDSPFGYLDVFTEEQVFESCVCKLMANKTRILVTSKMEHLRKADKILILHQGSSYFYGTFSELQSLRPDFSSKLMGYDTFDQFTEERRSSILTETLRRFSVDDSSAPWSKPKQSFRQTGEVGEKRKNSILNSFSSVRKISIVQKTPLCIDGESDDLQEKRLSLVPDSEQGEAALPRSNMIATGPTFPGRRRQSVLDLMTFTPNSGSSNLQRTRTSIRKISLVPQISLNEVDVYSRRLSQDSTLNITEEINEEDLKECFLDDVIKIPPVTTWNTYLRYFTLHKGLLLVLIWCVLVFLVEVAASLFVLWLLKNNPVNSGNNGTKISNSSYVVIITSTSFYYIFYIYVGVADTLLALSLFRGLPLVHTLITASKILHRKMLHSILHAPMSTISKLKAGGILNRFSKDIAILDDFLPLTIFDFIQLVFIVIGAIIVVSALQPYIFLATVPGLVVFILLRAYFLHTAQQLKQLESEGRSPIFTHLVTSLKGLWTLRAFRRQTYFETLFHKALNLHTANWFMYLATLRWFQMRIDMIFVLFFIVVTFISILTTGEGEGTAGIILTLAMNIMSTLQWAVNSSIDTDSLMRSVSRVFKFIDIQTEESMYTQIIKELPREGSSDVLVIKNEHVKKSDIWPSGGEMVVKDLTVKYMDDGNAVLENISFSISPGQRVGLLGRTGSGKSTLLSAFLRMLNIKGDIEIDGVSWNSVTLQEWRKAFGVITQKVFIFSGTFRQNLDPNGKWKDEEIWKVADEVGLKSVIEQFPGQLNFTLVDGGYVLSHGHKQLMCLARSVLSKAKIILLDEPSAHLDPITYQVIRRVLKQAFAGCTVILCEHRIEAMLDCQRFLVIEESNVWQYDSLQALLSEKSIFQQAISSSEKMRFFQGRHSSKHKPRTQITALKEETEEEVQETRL

- RPD hyperpolarized on average by (ΔF508 CFTR; CF mice treated with 4 mg/g TMAO for 24 hours, L-ascorbic acid 1 mM, n=4): −3.2±0.8 mV
- ΔRPD (ΔF508 CFTR; water-injected control CF mice, L-ascorbic acid or D-isoascorbic acid, n=9): −1.1±0.4 mV
Compound: O=C1O[C@H](C(O)CO)C(O)=C1O (stereo partly drawn) [L-ascorbic acid, L-xyloascorbic acid]
- cAMP level stimulated by 100 nM forskolin ([1]; 300 μM L-ascorbate + 100 nM forskolin): did not alter the elevated cAMP level
- resting intracellular cAMP level ([1]; L-ascorbate from 100 μM to 10 mM, 15 min): did not result in a detectable increase
- hyperpolarized nasal potential difference (PD) by [2]: 6.3 mV

Reference: US8138158B2, “Compositions and methods for therapy for diseases characterized by defective chloride transport” (Children's Hospital & Research Center at Oakland, priority 1997, dated 2012)
